# In patent US20170081724A1, “METHOD AND KITS FOR DETERMINING SENSITIVITY TO CANCER TREATMENT” (Dana-Farber Cancer Institute, Inc., priority 2014, published 2017):
# Tested on: ERCC2-deficient fibroblast cell line (GM08207) expressing GFP, WT ERCC2 or mutant ERCC2
# Test: Cisplatin sensitivity assay (CellTiter-Glo survival, 120 hours)
# Format: cell-based, human
# Procedure: The expression plasmids harboring WT ERCC2, GFP (negative control), or mutant ERCC2s were expanded in E. coli TOP10 cells (Invitrogen) and purified using an anion exchange kit (Qiagen). Lentiviruses were propagated in 293T cells by cotransfection of the expression plasmid with plasmids encoding viral packaging and envelope proteins. Unless otherwise noted, all human cell lines were cultured in Dulbecco's Modified Eagle's Medium (Invitrogen) supplemented with 10% fetal bovine serum (Sigma) and 1% L-glutamine and grown at 37° C. and 5% CO2. The 293T cell supernatants containing virus were collected after 48 hours, filtered twice (0.45 μm syringe filter, Millipore), then added directly to growing cultures of an SV40-transformed pseudodiploid ERCC2-deficient fibroblast cell line derived from an XP patient of genetic complementation group D (GM08207; Coriell Institute). Polybrene® (Sigma) was added to a final concentration of 8 μg/ml to increase the efficiency of infection. […]
# Cells were transferred to 96-well plates at a density of 500 cells per well. […] After 120 hours, CellTiter-Glo reagent (Promega) was added to the wells and the plates were scanned using a luminescence microplate reader (BioTek). […] IC50 concentrations were calculated using a four parameter sigmoidal model and plots were generated using Prism (GraphPad). […]
compound,measurement,setting,value
N.N.[Cl][Pt][Cl] [cisplatin],cisplatin IC50,"WT ERCC2 complemented cell line compared with ERCC2-deficient parent cell line, P=0.0003, ANOVA",significantly higher
same,cisplatin IC50,each mutant ERCC2 cell line (five mutants) compared with parent ERCC2-deficient cell line,not significantly different
